The IC50 is the concentration at which inhibition is half-maximal.

This test has as its target T1, ERα (Homo sapiens, UniProt P03372).
T1 sequence (P03372 1-595): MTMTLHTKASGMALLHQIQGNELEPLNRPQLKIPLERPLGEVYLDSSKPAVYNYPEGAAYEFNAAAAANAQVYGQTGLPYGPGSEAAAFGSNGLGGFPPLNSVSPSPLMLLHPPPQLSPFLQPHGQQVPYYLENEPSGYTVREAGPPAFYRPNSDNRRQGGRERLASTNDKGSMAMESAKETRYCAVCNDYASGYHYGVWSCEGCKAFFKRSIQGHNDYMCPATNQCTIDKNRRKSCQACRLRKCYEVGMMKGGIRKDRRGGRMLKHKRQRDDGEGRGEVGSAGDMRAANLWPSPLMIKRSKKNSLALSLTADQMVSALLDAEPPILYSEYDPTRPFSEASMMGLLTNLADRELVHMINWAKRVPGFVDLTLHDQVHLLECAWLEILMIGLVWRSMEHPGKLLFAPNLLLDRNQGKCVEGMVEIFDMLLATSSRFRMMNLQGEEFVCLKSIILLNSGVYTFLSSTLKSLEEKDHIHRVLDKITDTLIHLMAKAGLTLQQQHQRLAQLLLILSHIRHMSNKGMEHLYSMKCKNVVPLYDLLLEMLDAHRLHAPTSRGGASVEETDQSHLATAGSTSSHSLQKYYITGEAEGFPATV
In words: ERE luciferase reporter gene assay in T47D-KBluc cells (target engagement). In kind it is cell-based. Further details: T47D human breast cancer cells stably transfected with estrogen responsive element/promoter/luciferase reporter gene; host or cells: T47D-KBluc cells. As to conditions: 10% FBS, 24 hours, Table 1 cereblon centric PROTACs, read-out: ER-α Luciferase IC50. On the procedure: Chimeric molecules were assessed for target engagement in T47D cells using the commercial kit of ERE luciferase reporter gene assay. In the assay, 10% FBS was included and estrogen level was measured to be 10 pM.
ERE Luciferase Assay for Compounds in Table 1-3.
T47D-KBluc cells (ATCC #CRL_2865, T47D human breast cancer cells stably transfected with estrogen responsive element/promoter/luciferase reporter gene) were seeded into 96-well white opaque plates in RPMI growth medium supplemented with 10% fetal bovine serum and allowed to adhere overnight in a 37° C. humidified incubator. The following day, cells were treated with PROTACs in a 12-point concentration curve (top final concentration of 300 nM with subsequent concentrations being 3-fold less with 2 pM being the lowest concentration in the assay). Each PROTAC was tested independently in two experiments on 96-well plates. After 24 hours, media was removed and lysis buffer was added to the wells. Following lysis, Bright-Glo™ Luciferase Assay Substrate (Prornega, Madison Wis.) was added and the luciferase activity was measured using a Cytation 3 plate reader (TioTek™, Winooski, Vt.). Each compound was assayed in duplicates and the activity was calculated as IC50 using GraphPad Prism software (San Diego, Calif.).
For orientation: In a reporter assay the amount or activity of a reporter protein is the signal.
For `O=C(CN1CCN(CCOc2ccc(Oc3c(-c4ccc(Br)cc4)sc4cc(O)ccc34)cc2)CC1)NCc1ccc2c(c1)CN(C1CCC(=O)NC1=O)C2=O` (stereo not shown) [Compound 1], the IC50 was determined as 12.7 nM.

Turning to `O=C1CCC(N2Cc3c(NCCN4CCN(CCOc5ccc(Oc6c(-c7ccccc7)sc7cc(O)ccc67)cc5)CC4)cccc3C2=O)C(=O)N1` (stereo not shown) [Compound 2], the concentration for half-maximal inhibition (IC50) came to 0.36 nM.

Turning to `O=C1CCC(N2C(=O)c3cccc(NCCN4CCN(CCOc5ccc(Oc6c(-c7ccc(O)cc7)sc7cc(O)ccc67)cc5)CC4)c3C2=O)C(=O)N1` (stereo not shown) [Compound 3], the IC50 is 0.14 nM.

`O=C1CCC(N2Cc3c(NCCN4CCN(CCOc5ccc(Oc6c(-c7ccc(O)cc7)sc7cc(O)ccc67)cc5)CC4)cccc3C2=O)C(=O)N1` (stereo not shown) [Compound 4]: the IC50 turned out to be 0.09 nM.

In the case of `O=C1CCC(N2Cc3c(NCCN4CCN(CCOc5ccc(Oc6c(-c7ccc(Br)cc7)sc7cc(O)ccc67)cc5)CC4)cccc3C2=O)C(=O)N1` (stereo not shown) [Compound 5], the IC50 was 0.9 nM.

Consider `O=C1CCC(N2C(=O)c3cccc(NCCN4CCN(CCOc5ccc(Oc6c(-c7ccc(Br)cc7)sc7cc(O)ccc67)cc5)CC4)c3C2=O)C(=O)N1` (stereo not shown) [Compound 6], for which the concentration for half-maximal inhibition (IC50) came out at 1.3 nM.

On to `O=C1CCC(N2Cc3c(OCCN4CCN(CCOc5ccc(Oc6c(-c7ccc(Br)cc7)sc7cc(O)ccc67)cc5)CC4)cccc3C2=O)C(=O)N1` (stereo not shown) [Compound 7], for which the IC50 is 1.1 nM.

In the case of `O=C1CC[C@H](N2Cc3cc(OCC(=O)N4CCN(CCOc5ccc(Oc6c(-c7ccc(Br)cc7)sc7cc(O)ccc67)cc5)CC4)ccc3C2=O)C(=O)N1` [Compound 8], the IC50 stood at 1.9 nM.

Turning to `O=C1CC[C@@H](N2Cc3c(OCc4ccc(CN5CCN(CCOc6ccc(Oc7c(-c8ccc(Br)cc8)sc8cc(O)ccc78)cc6)CC5)nc4)cccc3C2=O)C(=O)N1` [Compound 9], the IC50 was 2.9 nM.

`O=C1CCC(N2C(=O)c3cccc(NCCN4CCN(CCOc5ccc(Oc6c(-c7ccccc7)sc7cc(O)ccc67)cc5)CC4)c3C2=O)C(=O)N1` (stereo not shown) [Compound 10]: the IC50 amounted to 0.63 nM.

As for `C[C@H](COc1ccc(Oc2c(-c3ccc(Br)cc3)sc3cc(O)ccc23)cc1)N1CCN(CC(=O)NCc2ccc3c(c2)CN(C2CCC(=O)NC2=O)C3=O)CC1` (stereo partly drawn) [Compound 11, 2-{4-[(2R)-1-(4-{[2-(4-bromophenyl)-6-hydroxy-1-benzothiophen-3-yl]oxy}phenoxy)propan-2-yl]piperazin-1-yl}-N-{[2-(2,6-dioxopiperidin-3-yl)-1-oxo-2,3-dihydro-1H-isoindol-5-yl]methyl}acetamide], the IC50 stood at 2.6 nM.

Take `C[C@@H](COc1ccc(Oc2c(-c3ccc(Br)cc3)sc3cc(O)ccc23)cc1)N1CCN(CC(=O)NCc2ccc3c(c2)CN(C2CCC(=O)NC2=O)C3=O)CC1` (stereo partly shown) [Compound 12]: the concentration for half-maximal inhibition (IC50) was 2.5 nM.

Turning to `C[C@H](COc1ccc(Oc2c(-c3ccc(Br)cc3)sc3cc(O)ccc23)cc1)N1CCN(CCOc2cccc3c2CN(C2CCC(=O)NC2=O)C3=O)CC1` (stereo partly shown) [Compound 13], the IC50 worked out at 1.3 nM.

For `Cc1nc2c(NCCN3CCN(CCOc4ccc(Oc5c(-c6ccc(Br)cc6)sc6cc(O)ccc56)cc4)CC3)cccc2c(=O)n1C1CCC(=O)NC1=O` (stereo not shown) [Compound 14], the half-maximal inhibitory concentration (IC50) came out at 17.7 nM.

In the case of `C[C@@H](COc1ccc(Oc2c(-c3ccc(Br)cc3)sc3cc(O)ccc23)cc1)N1CCN(CCOc2cccc3c2CN(C2CCC(=O)NC2=O)C3=O)CC1` (stereo partly shown) [Compound 15], the IC50 worked out at 1.7 nM.

For the compound `Cc1nc2c(OCCN3CCN(CCOc4ccc(Oc5c(-c6ccc(Br)cc6)sc6cc(O)ccc56)cc4)CC3)cccc2c(=O)n1C1CCC(=O)NC1=O` (stereo not shown) [Compound 16], the half-inhibitory concentration (IC50) worked out at 8.8 nM.

Take `O=C1CCC(N2Cc3c(OCCOCCOc4ccc(Oc5c(-c6ccc(Br)cc6)sc6cc(O)ccc56)cc4)cccc3C2=O)C(=O)N1` (stereo not shown) [Compound 17]: the half-maximal inhibitory concentration (IC50) was 2.9 nM.

With `O=C1CCC(N2Cc3c(NCCOCCOCCOCCOCCOc4ccc(Oc5c(-c6ccc(Br)cc6)sc6cc(O)ccc56)cc4)cccc3C2=O)C(=O)N1` (stereo not shown) [Compound 18], the IC50 came out at 81.4 nM.

Take `O=C1CCC(N2Cc3c(OCCOCCOCCOc4ccc(Oc5c(-c6ccc(Br)cc6)sc6cc(O)ccc56)cc4)cccc3C2=O)C(=O)N1` (stereo not shown) [Compound 19]: the IC50 is 8.9 nM.
